Patent US9238020B2, “Compositions comprising enzyme-cleavable phenol-modified tapentadol prodrug” (priority 2010, dated 2016)

Key:
[1] = target: human μ-opioid receptor (Homo sapiens, UniProt P35372); experiment: In vitro human μ-opioid receptor agonist cellular functional assay (cAMP, CHO cells); type: cell-based; set-up: expressed in transfected cells; conditions: CHO cells expressing human μ-opioid receptor, 37° C., 10 min
Method: The general procedure follows the protocol described by J.-B. Wang, et al, ibid. More specifically, the assay included as appropriate, Compound TP-1 or tapentadol and recombinant Chinese hamster ovary (CHO) cells expressing the human μ-opioid receptor on their cell surfaces. The control reaction included 1 μM DAMGO. The reaction mixtures were incubated at 37° C. for 10 min, and the reaction product was cyclic AMP (cAMP). The samples were submitted to homogeneous time resolved fluorescence (HTRF®). EC50 values (concentration producing a half-maximal specific response) were determined by non-linear regression fit using Hill plot software.

[2] = Pharmacokinetics of prodrug and tapentadol following IV administration to rats; conditions: male, Sprague Dawley, in vivo; prodrug in rat plasma; TP-1 IV 2 mg/kg (3 μmol/kg); read-out: TP-1 Cmax ± sd
Method: Compound TP-1 (which can be prepared as described in the examples herein) was dissolved in saline and injected into the tail vein of 4 jugular vein-cannulated male Sprague Dawley rats at a dose of 2 mg/kg. At specified time points, blood samples were drawn, harvested for plasma via centrifugation at 5,400 rpm at 4° C. for 5 min, and 100 μl plasma transferred from each sample into a fresh tube containing 2 μl of 50% formic acid. The tubes were vortexed for 5-10 seconds, immediately placed in dry ice and then stored in a −80° C. freezer until analysis by high performance liquid chromatography/mass spectrometry (HPLC/MS).
Table 2 and FIG. 4 provide Compound TP-1 and tapentadol exposure results for rats administered Compound TP-1 intravenously. Results in Table 2 are reported as maximum plasma concentration (Cmax) of Compound TP-1 and tapentadol (TP), respectively, (average±standard deviation).
Compound TP-3 or Compound TP-4 (which can be prepared as described in the examples herein), or tapentadol were dissolved in saline and injected into the tail vein of four jugular vein-cannulated male Sprague Dawley rats at a dose of 2 mg/kg. Sampling and analysis procedures were as described in Example 12.

[3] = Pharmacokinetics following PO administration to dogs; type: in vivo, dog; conditions: approximately equimole amounts
Method: Purebred male young adult/adult beagles were fasted overnight. Compound TP-1 (which can be prepared as described in the examples herein) or tapentadol (which can be prepared as described in PCT patent application No. WO28012046A1) were administered in approximately equimole amounts in water via oral gavage followed immediately by flushing the gavage tube with 5 mL water prior to withdrawal. Blood was collected from each animal predose and following dose administration at 0.25, 0.5, 1, 2, 3, 4, 6, 8, 10, 12 and 24 hours postdose. Blood samples were centrifuged and 0.8 mL plasma transferred to fresh tubes containing 8 μl formic acid; samples were vortexed, then immediately placed in dry ice and stored in a −80° C. freezer until analysis by HPLC/MS.
Table 5 and FIG. 6 provide tapentadol exposure results for dogs administered Compound TP-1 or tapentadol. Results in Table 5 are reported for each group of four dogs as described in Example 11.

[4] = Pharmacokinetics of tapentadol release following PO administration of prodrugs or tapentadol to rats; type: in vivo, rat
Method: Saline solutions of Compound TP-1 (which can be prepared as described in the examples herein) were dosed as indicated in Table 1 via oral gavage into 4 jugular vein-cannulated male Sprague Dawley rats that had been fasted for 16-18 hr prior to oral dosing. At specified time points, blood samples were drawn, harvested for plasma via centrifugation at 5,400 rpm at 4° C. for 5 min, and 100 microliters (μl) plasma transferred from each sample into a fresh tube containing 2 μl of 50% formic acid. The tubes were vortexed for 5-10 seconds, immediately placed in dry ice and then stored in a −80° C. freezer until analysis by HPLC/MS.
Saline solutions of Compounds TP-1, TP-3, TP-4, (which can be prepared as described in the examples herein) or tapentadol were dosed in approximately equimole amounts as indicated in Table 6. Dose administration, sampling and analysis procedures were as described in Example 11.
Dosing, sampling and analysis procedures were as described in Example 11.

[5] = target: T1, trypsin from bovine pancreas (Bos taurus, UniProt P00760); experiment: In vitro trypsin conversion of prodrug to tapentadol and inhibition thereof by Compound 109; type: biochemical; conditions: 4815 BAEE U trypsin/mL
T1 construct: purchased Sigma-Aldrich T8003; host or cells: bovine pancreas
T1 sequence (P00760 24-246): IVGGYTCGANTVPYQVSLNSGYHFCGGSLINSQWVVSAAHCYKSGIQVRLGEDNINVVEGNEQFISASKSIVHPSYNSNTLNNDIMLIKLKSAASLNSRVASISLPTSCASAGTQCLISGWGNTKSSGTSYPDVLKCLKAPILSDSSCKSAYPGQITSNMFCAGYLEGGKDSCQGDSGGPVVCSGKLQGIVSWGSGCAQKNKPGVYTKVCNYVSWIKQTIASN
Method: (§1) Compound TP-1 was incubated with trypsin from bovine pancreas (Catalog No. T8003, Type I, ˜10,000 BAEE units/mg protein, Sigma-Aldrich). Specifically, the reactions included 0.761 nM of Compound TP-1•2HCl, 22.5 mM calcium chloride, 40 to 172 mM Tris pH 8 and 0.25% DMSO with the BAEE units of trypsin indicated in Table 4. The reactions were conducted at 37° C. for 24 hr. Samples were collected at specified time points, transferred into 0.5% formic acid in acetonitrile to stop trypsin activity and stored at less than −70° C. until analysis by LC-MS/MS.
(§2) Compound TP-1 was also incubated in the presence of 2 micromolar (μM) trypsin inhibitor Compound 109. In that case, Compound TP-1 was added 5 min after the other incubation components. Other reaction and sample treatment conditions were as described above.
(§3) Table 4 indicates the results of exposure of Compound TP-1 to trypsin in the absence or presence of trypsin inhibitor. The results are expressed as half-life of prodrug when exposed to trypsin (i.e., Prodrug trypsin half-life) in hours and rate of tapentadol (TP) formation in umol/h/BAEE U trypsin.
(§4) Compound TP-1, Compound TP-3, or Compound TP-4 (which can be prepared as described in the examples herein) were incubated in the absence or presence of Compound 109 as shown in Table 8. Incubations and analysis procedures were as described in Example 14.

[6] = target: T2, trypsin (Bos taurus, UniProt P00760); experiment: as above; type: biochemical, bovine; conditions: bovine, trypsin from bovine pancreas, pH 8, with Compound 109 (trypsin inhibitor); Table 8; 4815 BAEE U trypsin/mL, Compound 109 40 μM; read-out: Pro-drug trypsin half-life, Average ± sd (converted)
T2 construct: purchased Sigma-Aldrich T8003; host or cells: bovine pancreas
T2 sequence (P00760 24-246): T1 sequence (P00760 24-246)
Method: as §1, §2, §3, §4

human μ-opioid receptor, sequence (P35372 whole entry): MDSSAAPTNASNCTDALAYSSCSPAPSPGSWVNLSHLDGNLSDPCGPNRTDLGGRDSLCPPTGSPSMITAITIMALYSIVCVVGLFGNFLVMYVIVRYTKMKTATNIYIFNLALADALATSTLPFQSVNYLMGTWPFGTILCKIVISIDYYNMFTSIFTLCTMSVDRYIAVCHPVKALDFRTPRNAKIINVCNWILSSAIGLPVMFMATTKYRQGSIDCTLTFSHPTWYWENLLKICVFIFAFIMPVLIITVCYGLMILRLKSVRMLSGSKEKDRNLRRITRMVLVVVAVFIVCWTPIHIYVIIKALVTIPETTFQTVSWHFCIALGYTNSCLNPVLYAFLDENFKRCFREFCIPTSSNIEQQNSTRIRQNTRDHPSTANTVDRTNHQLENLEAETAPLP

SMILES: CC[C@@H](c1cccc(OC(=O)N(C)CCNC(=O)[C@H](CCCNC(=N)N)NC(=O)CC(=O)O)c1)[C@@H](C)CN(C)C [Compound TP-1, N—[(S)-1-(2-{[3-((1R,2R)-3-dimethylamino-1-ethyl-2-methyl-propyl)-phenoxycarbonyl]-methyl-amino}-ethylcarbamoyl)-4-guanidino-butyl]-malonamic acid]
- agonist response in the μ-opioid receptor functional assay [1]: weak response was seen at 100 μM
- Cmax [2]: 965 ± 160 ng/mL
- tapentadol PK profile compared to administration of tapentadol [3]: delayed Tmax and increased AUC
- plasma concentrations of tapentadol versus prodrug dose ([4]; 5 to 50 mg/kg): increase proportionally
- tapentadol plasma concentration profile compared to administration of tapentadol ([4]; approximately equimole amounts): suppressed Cmax and delayed Tmax
- Rate of TP formation, Average ± sd ([5]; Table 4, Compound 109 0 μM): 0.0302 ± 0.002 umol/h/BAEE U
- Rate of TP formation, Average ± sd ([5]; Table 4, Compound 109 2 μM): 0.0243 ± 0.0008 umol/h/BAEE U
- Rate of TP formation, Average ± sd ([5]; Table 8, Compound 109 0 μM): 0.0302 ± 0.002 umol/h/BAEE U
- Rate of TP formation, Average ± sd ([5]; Table 8, Compound 109 2 μM): 0.0243 ± 0.0008 umol/h/BAEE U
- half-life at 0.761 nM [6]: 3.94 ± 0.18 h
